Results as given in PMC8386742, “Discovery of N-aryl sulphonamide-quinazoline derivatives as anti-gastric cancer agents in vitro and in vivo via activating the Hippo signalling pathway” (Journal of Enzyme Inhibition and Medicinal Chemistry, 2021).

Columns and labels:
MGC-803 cells = assay: MTT antiproliferative assay, MGC-803 cells; assay type: cell-based, human; settings: exposure for 48 h
Protocol: (§1) The in vitro antiproliferative activities of new target compounds 6a–6g, 9a–9i, 10a–10j, 11a–11j, and 14a–14d were evaluated against four human cancer cell lines (MGC-803, PC-3, HCT-116, and MCF-7) using MTT assay and 5-FU as a positive drug. The following Tables 1–[4] depicted the results of in vitro antiproliferative activity.
(§2) Cell lines used were cultured in humidified incubator in a humidified atmosphere of 5% CO2 and 95% air. The RPMI-1640 medium was supplemented with 10% foetal bovine serum, penicillin (100 U/ml) and streptomycin (0.1 mg/ml).
(§3) Cell lines were seeded into 96-well plates and incubated for 24 h. Then cells were treated with different concentrations of compounds. And after another 48 h, MTT reagent (20 μL per well) was added to each well and then incubated at 37 °C for 4 h. After the suspension was discarded, formazan was then dissolved with DMSO. Absorbencies of formazan solution were measured at 490 nm. The IC50 values of tested compounds were calculated by SPSS version 17.0.

HCT-116 cells = assay: MTT antiproliferative assay, HCT-116 cells; assay type: cell-based, human; settings: Homo sapiens, HCT-116, 48 h, exposure for 48 h
Protocol: as §1, §2, §3

PC-3 cells = assay: MTT antiproliferative assay, PC-3 cells; assay type: cell-based, human; settings: Homo sapiens, PC-3, exposure for 48 h
Protocol: as §1, §2, §3

MCF-7 cells = assay: MTT antiproliferative assay, MCF-7 cells; assay type: cell-based, human; settings: Homo sapiens, MCF7, 48 h, exposure for 48 h
Protocol: as §1, §2, §3

Compound | IC50 (MGC-803 cells; Homo sapiens, MGC-803, 48 h) [µM] | IC50 (HCT-116 cells) [µM] | IC50 (PC-3 cells) [µM] | IC50 (MCF-7 cells) [µM] | melting point [°C] | IC50 (MGC-803 cells) [µM]
COc1ccc(CN(c2cc(OC)c(OC)c(OC)c2)S(=O)(=O)c2ccc(F)cc2)cc1 [Compound 6a, 4-Fluoro-N-(4-methoxybenzyl)-N-(3,4,5-trimethoxyphenyl) benzene-sulphonamide] | 6.62 ± 0.82 | 16.7 ± 1.03 | 18.8 ± 0.31 | > 40 | 156 to 157 | 
COc1ccc(CN(c2cc(OC)c(OC)c(OC)c2)S(=O)(=O)c2ccc(Cl)cc2)cc1 [Compound 6b, 4-Chloro-N-(4-methoxybenzyl)-N-(3,4,5-trimethoxyphenyl) benzene-sulphonamide] | > 40 | > 40 | > 40 | > 40 | 166 to 167 | 
COc1ccc(CN(c2cc(OC)c(OC)c(OC)c2)S(=O)(=O)c2ccc(C)cc2)cc1 [Compound 6c] | 4.32 ± 0.65 | 6.18 ± 0.61 | 8.81 ± 0.98 | 11.2 ± 1.02 |  | 
COc1ccc(CN(c2cc(OC)c(OC)c(OC)c2)S(=O)(=O)c2ccccc2)cc1 [Compound 6d] | > 40 | > 40 | > 40 | > 40 |  | 
COc1ccc(CN(c2cc(OC)c(OC)c(OC)c2)S(=O)(=O)c2ccc(OC)cc2)cc1 [Compound 6e, 4-Methoxy-N-(4-methoxybenzyl)-N-(3,4,5-trimethoxyphenyl) benzene-sulphonamide] | 2.86 ± 1.08 | 3.48 ± 1.22 | 4.01 ± 1.67 | 7.68 ± 1.82 | 179 to 180 | 
COc1ccc(CN(c2cc(OC)c(OC)c(OC)c2)S(=O)(=O)c2cccs2)cc1 [Compound 6f, N-(4-methoxybenzyl)-N-(3,4,5-trimethoxyphenyl) thiophene-2-sulphonamide] | 28.3 ± 2.86 | 38.1 ± 2.64 | 38.7 ± 2.87 | 26.1 ± 1.87 |  | 
COc1ccc(CN(c2cc(OC)c(OC)c(OC)c2)S(=O)(=O)c2cccnc2)cc1 [Compound 6g, N-(4-methoxybenzyl)-N-(3,4,5-trimethoxyphenyl) pyridine-3-sulphonamide] | 38.2 ± 1.55 | > 40 | 16.9 ± 1.58 | > 40 | 162 to 163 | 
COc1ccc(S(=O)(=O)N(Cc2ccccc2)c2cc(OC)c(OC)c(OC)c2)cc1 [Compound 9a, N-benzyl-4-methoxy-N-(3,4,5-trimethoxyphenyl) benzene-sulfonamide] | 8.57 ± 1.62 | 18.8 ± 1.72 | 16.2 ± 1.06 | 24.5 ± 0.61 | 161 to 162 | 
COc1ccc(S(=O)(=O)N(Cc2ccc(Cl)cc2)c2cc(OC)c(OC)c(OC)c2)cc1 [Compound 9b, N-(4-chlorobenzyl)-4-methoxy-N-(3,4,5-trimethoxyphenyl) benzene-sulphonamide] | 19.2 ± 1.07 | 23 ± 5.25 | 36.1 ± 0.01 | 23.4 ± 1.53 | 172 to 173 | 
COc1ccc(S(=O)(=O)N(Cc2ccc(Br)cc2)c2cc(OC)c(OC)c(OC)c2)cc1 [Compound 9c, N-(4-bromobenzyl)-4-methoxy-N-(3,4,5-trimethoxyphenyl) benzene-sulphonamide] | 31.1 ± 0.79 | > 50 | 28 ± 2.76 | 33.8 ± 1.39 | 187 to 188 | 
COc1ccc(S(=O)(=O)N(Cc2ccc(C)cc2)c2cc(OC)c(OC)c(OC)c2)cc1 [Compound 9d, 4-Methoxy-N-(4-methylbenzyl)-N-(3,4,5-trimethoxyphenyl) benzene-sulphonamide] | 5.83 ± 1.75 | 11.9 ± 2.26 | 15.6 ± 1.57 | 41.8 ± 0.43 | 164 to 165 | 
COc1ccc(S(=O)(=O)N(Cc2ccc(OC)c(OC)c2)c2cc(OC)c(OC)c(OC)c2)cc1 [Compound 9e, N-(3,4-dimethoxybenzyl)-4-methoxy-N-(3,4,5-trimethoxyphenyl) benzene-sulphonamide] | 7.92 ± 2.26 | 8.6 ± 2.85 | 10.2 ± 0.52 | 22.9 ± 1.82 | 136 to 137 | 
COc1ccc(S(=O)(=O)N(Cc2cccnc2)c2cc(OC)c(OC)c(OC)c2)cc1 [Compound 9f, 4-Methoxy-N-(pyridin-3-ylmethyl)-N-(3,4,5-trimethoxyphenyl) benzene-sulphonamide] | 1.31 ± 0.08 | 6.92 ± 0.79 | 11.3 ± 1.11 | 6.31 ± 1.11 | 158 to 159 | 
COc1ccc(S(=O)(=O)N(Cc2c(C)noc2C)c2cc(OC)c(OC)c(OC)c2)cc1 [Compound 9h, N-((3,5-dimethylisoxazol-4-yl)methyl)-4-methoxy-N-(3,4,5-trimethoxyphenyl) benzene-sulfonamide] | 5.48 ± 0.58 | 12.1 ± 0.85 | 8.28 ± 3.4 | 11.5 ± 1.03 |  | 
COc1cc(N(Cc2nc(C)c3ccccc3n2)S(=O)(=O)c2ccccc2)cc(OC)c1OC [Compound 10a, N-((4-methylquinazolin-2-yl)methyl)-N-(3,4,5-trimethoxyphenyl) benzene-sulphonamide] | 6.62 ± 0.82 | 16.7 ± 1.03 | 28.2 ± 2.12 | > 50 | 178 to 179 | 
COc1cc(N(Cc2nc(C)c3ccccc3n2)S(=O)(=O)c2ccc(F)cc2)cc(OC)c1OC [Compound 10b, 4-Fluoro-N-((4-methylquinazolin-2-yl)methyl)-N-(3,4,5-trimethoxyphenyl) benzene-sulfonamide] | 0.92 ± 1.07 | 3.84 ± 0.14 | 4.72 ± 1.02 | 5.46 ± 0.87 | 162 to 163 | 
COc1cc(N(Cc2nc(C)c3ccccc3n2)S(=O)(=O)c2ccc(Br)cc2)cc(OC)c1OC [Compound 10c, 4-Bromo-N-((4-methylquinazolin-2-yl)methyl)-N-(3,4,5-trimethoxyphenyl) benzene-sulfonamide] | 0.82 ± 0.11 | 1.49 ± 0.22 | 1.81 ± 0.26 | 1.4 ± 0.25 | 170 to 171 | 
COc1cc(N(Cc2nc(C)c3ccccc3n2)S(=O)(=O)c2ccccc2Cl)cc(OC)c1OC [Compound 10d, 2-Chloro-N-((4-methylquinazolin-2-yl)methyl)-N-(3,4,5-trimethoxyphenyl) benzene-sulfonamide] | > 50 | 18.7 ± 1.27 | > 50 | 22.1 ± 0.31 | 183 to 184 | 
COc1cc(N(Cc2nc(C)c3ccccc3n2)S(=O)(=O)c2ccc(C)cc2)cc(OC)c1OC [Compound 10e, 4-Methyl-N-((4-methylquinazolin-2-yl)methyl)-N-(3,4,5-trimethoxyphenyl) benzene-sulfonamide] | 1.04 | 2.48 ± 0.12 | 4.01 ± 0.07 | 1.68 ± 0.12 | 182 to 183 | 1 ± 0.08
COc1cc(N(Cc2nc(C)c3ccccc3n2)S(=O)(=O)c2c(C)cc(C)cc2C)cc(OC)c1OC [Compound 10f, 2,4,6-Trimethyl-N-((4-methylquinazolin-2-yl)methyl)-N-(3,4,5-trimethoxyphenyl) benzene-sulfonamide] | > 50 | > 50 | > 50 | > 50 | 154 to 155 | 
COc1cc(N(Cc2nc(C)c3ccccc3n2)S(=O)(=O)c2ccc(C(C)(C)C)cc2)cc(OC)c1OC [Compound 10g, 4-(Tert-butyl)-N-((4-methylquinazolin-2-yl)methyl)-N-(3,4,5-trimethoxyphenyl) benzene-sulfonamide] | 12.8 ± 1.38 | 22.4 ± 1.67 | 18.9 ± 1.57 | 28.1 ± 1.82 | 144 to 145 | 
COc1ccc(S(=O)(=O)N(Cc2nc(C)c3ccccc3n2)c2cc(OC)c(OC)c(OC)c2)cc1OC [Compound 10h, 3,4-Dimethoxy-N-((4-methylquinazolin-2-yl)methyl)-N-(3,4,5-trimethoxyphenyl)benzene-sulfonamide] | 14.2 ± 1.03 | 22.9 ± 1.34 | 36.6 ± 0.34 | 18.5 ± 0.81 | 129 to 130 | 
COc1cc(N(Cc2nc(C)c3ccccc3n2)S(=O)(=O)c2cccs2)cc(OC)c1OC [Compound 10i, N-((4-Methylquinazolin-2-yl)methyl)-N-(3,4,5-trimethoxyphenyl)thiophene-2-sulphonamide] | 16.8 ± 1.42 | 20.4 ± 1.92 | 27.8 ± 2.02 | 30.2 ± 1.81 | 151 to 152 | 
COc1cc(N(Cc2nc(C)c3ccccc3n2)S(=O)(=O)c2ccccn2)cc(OC)c1OC [Compound 10j, N-((4-Methylquinazolin-2-yl)methyl)-N-(3,4,5-trimethoxyphenyl)pyridine-2-sulphonamide] | 14.7 ± 1.88 | 24.8 ± 2.13 | 28.2 ± 1.98 | 34.2 ± 1.83 | 159 to 160 | 
COc1cc(N(Cc2nc(C)c3ccccc3n2)C(=O)c2ccc(C)cc2)cc(OC)c1OC [Compound 11e, 4-Methyl-N-((4-methylquinazolin-2-yl)methyl)-N-(3,4,5-trimethoxyphenyl) benzamide] | 10.8 ± 1.18 |  | 24.9 ± 1.41 | 18.6 ± 1.32 | 196 to 197 | 
COc1ccc(C(=O)N(Cc2nc(C)c3ccccc3n2)c2cc(OC)c(OC)c(OC)c2)cc1 [Compound 11h, 4-Methoxy-N-((4-methylquinazolin-2-yl)methyl)-N-(3,4,5-trimethoxyphenyl) benzamide] | 5.82 ± 1.17 | 10.4 ± 1.04 | 18.7 ± 1.38 | 22.4 ± 1.54 |  | 
